{"source": "patent US9522928B2", "about": "“Mannosylated compounds useful for the prevention and the treatment of infectious diseases” (UNIVERSITE DE STRASBOURG, priority 2011, dated 2016)", "key": {"[1]": {"assay": "Hydrodynamic diameter of micelles (Zetasizer Nano ZS)", "format": "physicochemical", "details": "in water at 0.5 mg/ml", "procedure": "DiManinsatC24 was prepared according a procedure similar to that used for the preparation of TriDiManC24 except that: • pentacosanoic acid was replaced by 10,12-pentacosadiynoic acid, and • before the coupling with 10,12-pentacosadiynoic acid, the benzyl groups of compound 33 were replaced by acetyl group so as to provide compound 108 (as illustrated in FIG. 3E). ^1H NMR δ(ppm) (MeOD, 400 MHz) 4.87 (s, 3H), 4.73 (s, 3H), 3.64-3.50 (m, 14H), 3.46-3.20 (m, 76H), 2.97-2.93 (m, 6H), 2.33 (t, 6H, J=6.8 Hz), 2.09-1.96 (m, 6H), 1.08-1.05 (m, 32H), 0.66 (t, 3H, J=6.8 Hz). ^13C NMR δ (ppm) (MeOD, 100 MHz) 173.7, 168.8, 104.2, 101.2, 80.6, 80.4, 75.1, 74.7, 72.5, 72.2, 72.1, 71.9, 71.8, 71.7, 71.6, 71.4, 69.4, 69.1, 68.9, 68.7, 68.6, 68.0, 63.2, 63.1, 42.2, 37.0, 34.8, 33.7, 33.1, 30.8, 30.7, 30.6, 30.5, 30.4, 30.2, 29.5, 28.1, 27.0, 26.0, 23.7, 19.7, 14.4. IR (neat film, cm^−1): 3353, 2924, 1716, 1636, 1350, 1182, 1095, 1035, 1009, 837, 669. • Determination of critical micelle concentrations (CMCs) and size of particles. The hydrodynamic diameters of micelles of glycolipids were measured in water using a Zetasizer Nano ZS system (Malvern Instruments). The CMCs were measured using pyrene as an extrinsic fluorescent probe and were carried out as described (Perino et al., 2011). Briefly, a range of glycolipid samples were dissolved in water (1 ml), with concentrations ranging from 1.0 to 0.001 mg/ml. A stock solution of pyrene (1 mM) was prepared in dimethyl sulfoxyde and was added to each sample. Fluorescent emission of pyrene was measured at 25° C. using a Fluorolog spectrofluorometer (Jobin Yvon, Horiba). The intensities of fluorescence emission were determined at 374 nm (I374) and at 383 nm (I383), with an excitation at a 339 nm wavelength. The ratios I374/I383 were calculated and plotted against the glycolipid concentration. The CMC value was determined at the intersection of the two straight lines."}, "[2]": {"molecular_target": "T1, DC-SIGN expressed at the surface of DCs (Homo sapiens, UniProt Q9NNX6)", "T1 construct": "endogenous in cells; host or cells: human monocyte-derived dendritic cells (GM-CSF/IL-4 differentiated)", "T1 sequence (Q9NNX6 1-404)": "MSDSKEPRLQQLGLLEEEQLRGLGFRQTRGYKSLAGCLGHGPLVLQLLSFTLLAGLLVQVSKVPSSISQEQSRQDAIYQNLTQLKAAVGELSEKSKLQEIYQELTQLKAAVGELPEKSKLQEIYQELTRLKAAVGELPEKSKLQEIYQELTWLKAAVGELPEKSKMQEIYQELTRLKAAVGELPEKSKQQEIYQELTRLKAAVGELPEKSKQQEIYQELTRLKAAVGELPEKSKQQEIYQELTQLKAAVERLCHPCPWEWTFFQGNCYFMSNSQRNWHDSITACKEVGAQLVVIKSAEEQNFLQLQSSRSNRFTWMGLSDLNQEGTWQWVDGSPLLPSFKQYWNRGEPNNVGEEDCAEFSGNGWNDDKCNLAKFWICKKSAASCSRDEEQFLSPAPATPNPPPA", "assay": "Competition with gp120-FITC binding to DCs, flow cytometry", "format": "cell-based", "details": "100 μM, 30 min pretreatment, competition not complete", "procedure": "Human DCs (1×10^5 in 100 μl) were aliquoted in a 96-well microtiter plate in RPMI 1640 medium without FBS. To assess the binding of HIV-1 glycoprotein 120, FITC conjugated recombinant gp120 HIV-1 IIIB (ImmunoDiagnostics Inc, Woburn, Mass. U.S.A.) was added to the cells (final concentration of 5 μg/ml) and incubated for 45 min at 37° C. For competition assays, cells were pretreated with either mannan (100 μg/ml final) or TriManC24 (100 μM) for 30 min at 37° C., followed by incubation with gp120-FITC for 45 min at 37° C. After washing with HBSS buffer (Lonza), expression of fluorescence intensity was analyzed on a FACSCalibur flow cytometer with the CellQuest Pro software\nThe ability of TriManC24 to inhibit the interactions of HIV-1 gp120 with DC-SIGN […] at the surface of DCs. Immature DCs were prepared by differentiation of human monocytes, in the presence of a cocktail of cytokines. The expression levels of DC-SIGN were controlled by flow cytometry. […] When cells were incubated with fluorescently-labeled gp120, a strong binding of gp120 to DCs was observed as compared with a lower interaction with monocytes (FIG. 1B).\nA competition assays were performed by pre-incubating DCs with either TriManC24 or mannan, followed by the addition of gp120-FITC (FIG. 1C)."}, "DCs": {"system": "DCs", "assay": "Confocal microscopy of Alexa633-labeled TriManC24 in DCs", "format": "cell-based, human", "details": "Alexa Fluor 633 labeled compound, 100 μM, 10 min at 37° C.", "procedure": "Human DCs (1×10^5 in 100 μl of RPMI medium) were exposed to Alexa633-labeled TriManC24 (100 μM final) for 10 min at 37° C. When indicated, transferrin-Alexa488 (Invitrogen) was also added for 10 min at 37° C. Cells were then washed and fixed with 4% paraformaldehyde for 15 min at room temperature. Nuclei were labeled with DAPI (1 μg/ml final) for 5 min. Slides were mounted using Prolong-Antifade (Molecular Probes). Samples were imaged with a confocal microscope (Zeiss LSM 700) and images analyzed with Adobe Photoshop.\nTo gain further insight into the interactions of TriManC24 with DC-SIGN expressed by DCs, a fluorescence-labeled TriManC24 was prepared by connecting Alexa Fluor 633 to hydroxyl groups of the mannose units. DCs were exposed to the labeled TriManC24 and visualized by confocal fluorescence microscopy."}}, "data": [{"molecule": "CCCCCCCCCCCCCCCCCCCCCCCCC(=O)NC(COCCC(=O)NCCOCCOCCOCCOC1OC(CO)C(O)C(O)C1O)(COCCC(=O)NCCOCCOCCOCCOC1OC(CO)C(O)C(O)C1O)COCCC(=O)NCCOCCOCCOCCOC1OC(CO)C(O)C(O)C1O", "note": "(stereo not shown) [TriManC24]", "values": [{"measurement": "hydrodynamic diameter of micelles", "setting": "[1]", "value": 39, "unit": "nm"}, {"measurement": "inhibition of gp120 binding to DCs (in words)", "setting": "[2]", "value": "able to inhibit the binding of gp120-FITC to DCs"}, {"measurement": "inhibition of gp120 binding to DCs (in words)", "setting": "[2]; listed as TrimanC24", "value": "competed for the binding of soluble gp120 glycoprotein to DC-SIGN"}, {"measurement": "cell binding and internalization (in words)", "setting": "DCs", "value": "binds to the cell membrane and can be internalized by DCs via clathrin -mediated endocytosis"}]}]}
